Starred links: 1 amine or outer side, 2 acyl side, 3 side chain; linkers in the order of their positions; H or OH if unused. Positions of bridges follow the written chain, without caps; N, C: chain ends. Non-standard residues stand in square brackets, D forms with d. Residues, ends and D or L forms follow the SMILES beside them. *: point of attachment. C18 diacid = O=C(O)CCCCCCCCCCCCCCCCC(=O)*; γGlu = O=C(O)[C@H](CCC(=O)[*:2])N[*:1]; AEEA = NCCOCCOCC(=O)O
Target: T1, human natriuretic peptide receptor 2 (hNPR2) (Homo sapiens, UniProt P20594)
T1 construct: expressed in transfected cells; host or cells: HEK293 (ATCC CRL-1573), clone 35, co-transfected with pGloSensor-42F
T1 sequence (P20594 23-1047): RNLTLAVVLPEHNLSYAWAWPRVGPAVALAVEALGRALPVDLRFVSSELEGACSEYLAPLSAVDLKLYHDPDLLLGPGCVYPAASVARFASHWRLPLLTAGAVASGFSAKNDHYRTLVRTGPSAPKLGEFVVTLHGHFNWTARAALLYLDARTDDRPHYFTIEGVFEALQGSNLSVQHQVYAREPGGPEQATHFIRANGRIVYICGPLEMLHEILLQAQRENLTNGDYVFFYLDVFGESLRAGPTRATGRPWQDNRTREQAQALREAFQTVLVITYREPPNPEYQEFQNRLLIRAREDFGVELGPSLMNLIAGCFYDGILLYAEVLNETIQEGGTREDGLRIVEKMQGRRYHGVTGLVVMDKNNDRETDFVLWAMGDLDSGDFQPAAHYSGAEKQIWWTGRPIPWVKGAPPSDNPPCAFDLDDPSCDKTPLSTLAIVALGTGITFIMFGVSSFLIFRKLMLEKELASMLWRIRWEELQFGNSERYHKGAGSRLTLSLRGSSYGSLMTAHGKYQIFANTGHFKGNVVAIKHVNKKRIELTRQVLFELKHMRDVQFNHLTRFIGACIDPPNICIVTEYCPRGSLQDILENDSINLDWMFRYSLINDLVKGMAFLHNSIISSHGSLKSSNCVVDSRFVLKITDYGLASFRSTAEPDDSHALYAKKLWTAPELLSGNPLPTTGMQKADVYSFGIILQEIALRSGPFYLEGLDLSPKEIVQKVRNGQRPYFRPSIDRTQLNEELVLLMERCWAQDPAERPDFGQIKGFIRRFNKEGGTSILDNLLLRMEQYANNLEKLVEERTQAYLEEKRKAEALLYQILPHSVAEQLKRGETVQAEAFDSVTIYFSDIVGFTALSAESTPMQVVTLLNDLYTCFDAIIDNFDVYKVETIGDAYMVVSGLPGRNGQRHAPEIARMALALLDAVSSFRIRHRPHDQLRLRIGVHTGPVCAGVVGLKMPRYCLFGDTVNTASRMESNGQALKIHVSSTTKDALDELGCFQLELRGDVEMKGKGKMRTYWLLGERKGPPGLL
Test: In vitro hNPR2 activity assay (cGMP GloSensor reporter, HEK293)
Format: cell-based
Conditions: for hNPR2 0% HSA. [EC50% rel CNP]: potency relative to CNP22 (0065); for EC50: 0% HSA, HEK293-hNPR2/GloSensor cells
Procedure: To evaluate the in vitro activity of CNP22 (0065; Chem. 1) and CNP compounds of the invention, they were tested for their ability to induce production of cyclic guanosine monophosphate (cGMP) in reporter cells expressing the human natriuretic peptide receptor 2 (hNPR2).
Cell culture: To produce the reporter cell line, HEK293 (ATCC® CRL-1573™) cells were stably transfected with the pGloSensor-42F reporter plasmid (GloSensor cGMP reporter—luciferase, Promega) and an expression plasmid encoding the hNPR2 receptor. A single cell clone was isolated for the reporter cell line. When reporter cells are exposed to an hNPR2 activating compound, hNPR2 cause production of cGMP. […] Active GloSensor luciferase is able to convert luciferin to oxyluciferin, a process that produces bioluminescence. Upon cell lysis and supply of luciferase substrate, luciferase activity can be quantified by detection of luminescence. Therefore, addition of an hNPR2 activating compound and subsequent addition of detection reagent to reporter cells causes generation of luminescence in a dose dependent manner. […] This measure, also referred to as in vitro potency, is reported for all compounds tested. In all the in vitro activity experiments, CNP22 was used as a positive in-plate control for hNPR2 activation. To reduce inter-assay variation, we also report the potency of each compound relative to the potency of the CNP22 control on each plate.
Procedure: HEK293-hNPR2/GloSensor clone 35 cells were continuously cultured in selection medium (DMEM containing 10% FCS, 1% P/S, 200 μg/mL G418 and 100 μg/mL hygromycin). To perform the assay, cells were detached with TrypLE Express (Gibco #12604013), put through a 70 μm cell strainer, counted and seeded in 30 μL/well assay medium (DMEM without phenol red and with 1% P/S) at 10,000 cells/well in white 384-well plates (Perkin Elmer #6007680) overnight. The following day, test compounds were serial diluted in dilution medium (DMEM without phenol red containing 1% OVA (Sigma #A5505 lot 04M7001V), 0.01% Tween20 (Roche #33766700) and 1% P/S) and 10 μL/well of diluted test compounds were subsequently added to the cells. For each compound, ten different concentrations in the range 0.25 μM-10 μM were tested. After 30 min of incubation at 37° C. and 5% CO2, 40 μL/well Bright-Glo detection reagent (Promega #E2650) was added. […] To determine the in vitro potency or EC50 of each test compound, a four parameter logistic regression was done on the raw data for each test compound using the Python package SciPy optimize. The average EC50 values are listed as “hNPR2 0% HSA. [EC50 (nM)]” in Table 2. A relative potency was calculated by the following expression: EC50 (CNP22 in-plate control)/EC50 (test compound)*100, shown as “hNPR2 0% HSA. [EC50% rel CNP]” in Table 2. A minimum of two replicates was measured for each test compound.

Row | Compound | hNPR2 0% HSA. [EC50% rel CNP] | EC50
1 | CC[C@H](C)[C@@H]1NC(=O)[C@H](CCCNC(=N)N)NC(=O)[C@H](CC(=O)O)NC(=O)[C@H](CC(C)C)NC(=O)[C@@H]2CCCN2C(=O)[C@H](CC(C)C)NC(=O)CNC(=O)[C@H](Cc2ccccc2)NC(=O)[C@@H](NC(=O)CNC(=O)[C@H](CO)NC(=O)[C@H](CO)NC(=O)[C@@H](NC(=O)CNC(=O)[C@H](CCCCN)NC(=O)[C@H](CCCCN)NC(=O)[C@H](CCC(N)=O)NC(=O)[C@H](C)NC(=O)CNC(=O)[C@H](Cc2c[nH]cn2)NC(=O)[C@H](CCC(=O)O)NC(=O)COCCOCCNC(=O)COCCOCCNC(=O)CC[C@H](NC(=O)CCCCCCCCCCCCCCCCC(=O)O)C(=O)O)C(C)C)CSSC[C@@H](C(=O)O)NC(=O)CNC(=O)[C@H](CC(C)C)NC(=O)CNC(=O)[C@H](CO)NC(=O)[C@H](CC(C)C)NC(=O)[C@H](CO)NC(=O)CNC1=O [compound 1311] ({C18 diacid-γGlu-AEEA-AEEA}-EHGAQKKGVSSGCFGLPLDRIGSLSGLGC-OH; disulfide 13-29; C-terminus assumed) | 12.7% | 
2 | CC[C@H](C)[C@@H]1NC(=O)[C@H](CCCNC(=N)N)NC(=O)[C@H](CC(=O)O)NC(=O)[C@H](CC(C)C)NC(=O)[C@@H]2CCCN2C(=O)[C@H](CC(C)C)NC(=O)CNC(=O)[C@H](Cc2ccccc2)NC(=O)[C@@H](NC(=O)CNC(=O)[C@H](CCC(N)=O)NC(=O)[C@H](CO)NC(=O)[C@H](CC(C)C)NC(=O)CNC(=O)[C@H](CCCCN)NC(=O)[C@H](CCCCN)NC(=O)[C@H](CCC(N)=O)NC(=O)[C@H](C)NC(=O)CNC(=O)[C@H](CCC(=O)O)NC(=O)[C@H](Cc2ccc(O)cc2)NC(=O)[C@H](CCCCN)NC(=O)[C@H](C)NC(=O)[C@H](C)NC(=O)[C@H](CCC(N)=O)NC(=O)[C@@H]2CCCN2C(=O)[C@H](Cc2c[nH]cn2)NC(=O)[C@H](CCC(=O)O)NC(=O)[C@H](CCC(N)=O)NC(=O)COCCOCCNC(=O)COCCOCCNC(=O)CC[C@H](NC(=O)CCCCCCCCCCCCCCCCC(=O)O)C(=O)O)CSSC[C@@H](C(=O)O)NC(=O)CNC(=O)[C@H](CC(C)C)NC(=O)CNC(=O)[C@H](CO)NC(=O)[C@H](CC(C)C)NC(=O)[C@H](CO)NC(=O)CNC1=O [compound 1395] ({C18 diacid-γGlu-AEEA-AEEA}-QEHPQAAKYEGAQKKGLSQGCFGLPLDRIGSLSGLGC-OH; disulfide 21-37) | 60.2% | 
3 | CC[C@H](C)[C@@H]1NC(=O)[C@H](CCCNC(=N)N)NC(=O)[C@H](CC(=O)O)NC(=O)[C@H](CC(C)C)NC(=O)[C@H](CCCCN)NC(=O)[C@H](CC(C)C)NC(=O)CNC(=O)[C@H](Cc2ccccc2)NC(=O)[C@@H](NC(=O)CNC(=O)[C@H](CCCCN)NC(=O)[C@H](CO)NC(=O)[C@H](CC(C)C)NC(=O)CNC(=O)[C@H](CCCCN)NC(=O)[C@H](CCC(=O)O)NC(=O)[C@H](CCC(N)=O)NC(=O)[C@H](C)NC(=O)CNC(=O)[C@H](Cc2c[nH]cn2)NC(=O)[C@H](CCC(=O)O)NC(=O)COCCOCCNC(=O)COCCOCCNC(=O)CC[C@H](NC(=O)CCCCCCCCCCCCCCCCC(=O)O)C(=O)O)CSSC[C@@H](C(=O)O)NC(=O)CNC(=O)[C@H](CC(C)C)NC(=O)CNC(=O)[C@H](CO)NC(=O)[C@H](CC(C)C)NC(=O)[C@H](CO)NC(=O)CNC1=O [compound 1236] ({C18 diacid-γGlu-AEEA-AEEA}-EHGAQEKGLSKGCFGLKLDRIGSLSGLGC-OH; disulfide 13-29; C-terminus assumed) | 6.1% | 3.4 nM
4 | CC[C@H](C)[C@@H]1NC(=O)[C@H](CCCNC(=N)N)NC(=O)[C@H](CC(=O)O)NC(=O)[C@H](CC(C)C)NC(=O)[C@H](CCCCN)NC(=O)[C@H](CC(C)C)NC(=O)CNC(=O)[C@H](Cc2ccccc2)NC(=O)[C@@H](NC(=O)CNC(=O)[C@H](CCCCN)NC(=O)[C@H](CO)NC(=O)[C@H](CC(C)C)NC(=O)CN)CSSC[C@@H](C(=O)O)NC(=O)CNC(=O)[C@H](CC(C)C)NC(=O)CNC(=O)[C@H](CO)NC(=O)[C@H](CCSC)NC(=O)[C@H](CO)NC(=O)CNC1=O [compound 0065] | 100.0% | 
5 | {C18 diacid}-EGEGEGEGE[AEEA][AEEA]ARKYKGAQKKGLSQGCFGLPLDRIGSLSGLGC-OH (disulfide 27-43) [compound 1476] | 48.4% | 
6 | CC[C@H](C)[C@@H]1NC(=O)[C@H](CCCNC(=N)N)NC(=O)[C@H](CCC(=O)O)NC(=O)[C@H](CC(C)C)NC(=O)[C@H](CCCCN)NC(=O)[C@H](CC(C)C)NC(=O)CNC(=O)[C@H](Cc2ccccc2)NC(=O)[C@@H](NC(=O)CNC(=O)[C@H](CCC(N)=O)NC(=O)[C@H](CO)NC(=O)[C@H](CC(C)C)NC(=O)CNC(=O)[C@H](Cc2c[nH]cn2)NC(=O)[C@H](Cc2c[nH]cn2)NC(=O)[C@H](CCC(N)=O)NC(=O)[C@H](C)NC(=O)CNC(=O)[C@H](CCCCN)NC(=O)[C@H](Cc2ccc(O)cc2)NC(=O)COCCOCCNC(=O)COCCOCCNC(=O)CC[C@H](NC(=O)CC[C@H](NC(=O)CCCCCCCCCCCCCCCCC(=O)O)C(=O)O)C(=O)O)CSSC[C@@H](C(=O)O)NC(=O)CNC(=O)[C@H](CC(C)C)NC(=O)CNC(=O)[C@H](CO)NC(=O)[C@H](CC(C)C)NC(=O)[C@H](CO)NC(=O)CNC1=O [compound 1324] ({C18 diacid-γGlu-γGlu-AEEA-AEEA}-YKGAQHHGLSQGCFGLKLERIGSLSGLGC-OH; disulfide 13-29) | 1.6% | 5.51 nM
7 | CC[C@H](C)[C@@H]1NC(=O)[C@H](CCCNC(=N)N)NC(=O)[C@H](CC(=O)O)NC(=O)[C@H](CC(C)C)NC(=O)[C@@H]2CCCN2C(=O)[C@H](CC(C)C)NC(=O)CNC(=O)[C@H](Cc2ccccc2)NC(=O)[C@@H](NC(=O)CNC(=O)[C@H](CCC(N)=O)NC(=O)[C@H](CO)NC(=O)[C@H](CC(C)C)NC(=O)CNC(=O)[C@H](CCCCN)NC(=O)[C@H](CCCCN)NC(=O)[C@H](CCC(N)=O)NC(=O)[C@H](C)NC(=O)CNC(=O)[C@H](CCCCN)NC(=O)[C@H](Cc2ccc(O)cc2)NC(=O)[C@H](CCCCN)NC(=O)[C@H](CCCNC(=N)N)NC(=O)[C@H](C)NC(=O)COCCOCCNC(=O)COCCOCCNC(=O)COCCOCCNC(=O)CC[C@H](NC(=O)CC[C@H](NC(=O)CC[C@H](NC(=O)CC[C@H](NC(=O)CCCCCCCCCCCCCCCCC(=O)O)C(=O)O)C(=O)O)C(=O)O)C(=O)O)CSSC[C@@H](C(=O)O)NC(=O)CNC(=O)[C@H](CC(C)C)NC(=O)CNC(=O)[C@H](CO)NC(=O)[C@H](CC(C)C)NC(=O)[C@H](CO)NC(=O)CNC1=O [compound 1455] ({C18 diacid-γGlu-γGlu-γGlu-γGlu-AEEA-AEEA-AEEA}-ARKYKGAQKKGLSQGCFGLPLDRIGSLSGLGC-OH; disulfide 16-32) | 43.4% | 

Source: patent publication US20240209028A1, “CNP COMPOUNDS” (priority 2022, published 2024)
